Measurements taken from PubChem BioAssay (NCI).
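The compound was tested at five concentrations on cells cultured in 96-well plates, with a 48-hour exposure period. TGI: concentration producing complete growth inhibition.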

What was measured:
Assay in all cases: inhibition of tumour cell growth, NCI panel, 48 h
[1] = tested on: MOLT-4 leukemia
[2] = tested on: SK-MEL-2 melanoma
[3] = tested on: CAKI-1 renal
[4] = tested on: U251 CNS
[5] = tested on: A549 NSCLC
[6] = tested on: SW-620 colon
[7] = tested on: OVCAR-3 ovarian
[8] = tested on: K-562 leukemia
[9] = tested on: EKVX NSCLC
[10] = tested on: CCRF-CEM leukemia
[11] = tested on: HS 578T breast
[12] = tested on: UACC-257 melanoma
[13] = tested on: SNB-19 CNS
[14] = tested on: RXF 393 renal
[15] = tested on: MALME-3M melanoma
[16] = tested on: NCI-H522 lung
[17] = tested on: SR leukemia
[18] = tested on: HCT-116 colon
[19] = tested on: HT29 colon
[20] = tested on: NCI-H460 lung
[21] = tested on: UO-31 renal
[22] = tested on: OVCAR-8 ovarian
[23] = tested on: SN12C renal
[24] = tested on: MDA-MB-435
[25] = tested on: NCI/ADR-RES ovarian
[26] = tested on: ACHN renal
[27] = tested on: A498 renal
[28] = tested on: T-47D breast
[29] = tested on: SF-268 CNS
[30] = tested on: HCT-15 colon
[31] = tested on: HOP-92 NSCLC
[32] = tested on: SK-MEL-28 melanoma
[33] = tested on: M14 melanoma
[34] = tested on: MDA-N
[35] = tested on: HOP-62 NSCLC
[36] = tested on: MDA-MB-231 breast
[37] = tested on: OVCAR-5 ovarian
[38] = tested on: SNB-75 CNS
[39] = tested on: HCC-2998 colon
[40] = tested on: SK-MEL-5 melanoma
[41] = tested on: IGROV1 ovarian
[42] = tested on: 786-0 renal
[43] = tested on: TK-10 renal
[44] = tested on: KM12 colon
[45] = tested on: SF-539 CNS
[46] = tested on: MCF7 breast
[47] = tested on: OVCAR-4 ovarian
[48] = tested on: NCI-H23 lung
[49] = tested on: SK-OV-3 ovarian
[50] = tested on: DU-145 prostate
[51] = tested on: PC-3 prostate
[52] = tested on: HL-60(TB) leukemia
[53] = tested on: SF-295 CNS
[54] = tested on: NCI-H226 lung
[55] = tested on: RPMI-8226 leukemia
[56] = tested on: LOX IMVI melanoma
[57] = tested on: COLO 205 colon
[58] = tested on: UACC-62 melanoma
[59] = tested on: BT-549 breast

O=C(NC(O)(C(F)(F)F)C(F)(F)F)c1ccccc1
TGI [1]: > 100 µM | TGI [2]: > 100 µM | TGI [3]: > 100 µM | TGI [4]: > 100 µM | TGI [5]: > 100 µM | TGI [6]: > 100 µM | TGI [7]: > 100 µM | TGI [8]: > 100 µM | TGI [9]: > 100 µM | TGI [10]: > 100 µM | TGI [11]: > 100 µM | TGI [12]: > 100 µM | TGI [13]: > 100 µM | TGI [14]: > 100 µM | TGI [15]: > 100 µM | TGI [16]: > 100000 nM | TGI [17]: > 100 µM | TGI [18]: > 100 µM | TGI [19]: > 100 µM | TGI [20]: > 100 µM | TGI [21]: > 100 µM | TGI [22]: > 100 µM | TGI [23]: > 100 µM | TGI [24]: > 100 µM | TGI [25]: > 100 µM | TGI [26]: > 100 µM | TGI [27]: > 100 µM | TGI [28]: > 100 µM | TGI [29]: > 100 µM | TGI [30]: > 100 µM | TGI [31]: > 100 µM | TGI [32]: > 100 µM | TGI [33]: > 100 µM | TGI [34]: > 100 µM | TGI [35]: > 100 µM | TGI [36]: > 100 µM | TGI [37]: > 100 µM | TGI [38]: > 100 µM | TGI [39]: > 100 µM | TGI [40]: > 100 µM | TGI [41]: > 100 µM | TGI [42]: > 100 µM | TGI [43]: > 100 µM | TGI [44]: > 100 µM | TGI [45]: > 100 µM | TGI [46]: > 100 µM | TGI [47]: > 100 µM | TGI [48]: > 100 µM | TGI [49]: > 100 µM | TGI [50]: > 100 µM | TGI [51]: > 100 µM | TGI [52]: > 100 µM | TGI [53]: > 100 µM | TGI [54]: > 100 µM | TGI [55]: > 100 µM | TGI [56]: > 100 µM | TGI [57]: > 100 µM

O=C1OCC2=C1C(c1ccc3c(c1)OCO3)c1cc3c(cc1O2)OCO3 (centres undefined)
TGI [1]: > 49.1 µM | TGI [2]: > 100 µM | TGI [3]: > 100 µM | TGI [4]: > 100 µM | TGI [5]: > 100 µM | TGI [6]: > 100 µM | TGI [7]: > 21.3 µM | TGI [58]: > 72.6 µM | TGI [8]: 28.8 µM | TGI [9]: > 100 µM | TGI [10]: > 30.7 µM | TGI [11]: 20.8 µM | TGI [12]: > 100 µM | TGI [13]: > 27.2 µM | TGI [14]: 7.6 µM | TGI [15]: > 100 µM | TGI [16]: 533 nM | TGI [17]: 5.19 µM | TGI [18]: 41.5 µM | TGI [19]: 3.54 µM | TGI [20]: > 100 µM | TGI [21]: > 85.6 µM | TGI [22]: 68.1 µM | TGI [23]: > 100 µM | TGI [24]: 0.323 µM | TGI [25]: 2.03 µM | TGI [26]: > 100 µM | TGI [27]: 42.8 µM | TGI [28]: > 100 µM | TGI [29]: > 100 µM | TGI [30]: > 79.1 µM | TGI [31]: > 100 µM | TGI [32]: > 59.1 µM | TGI [33]: 11.4 µM | TGI [34]: 0.368 µM | TGI [35]: > 100 µM | TGI [36]: > 100 µM | TGI [37]: > 100 µM | TGI [38]: 11.9 µM | TGI [39]: 59.3 µM | TGI [40]: > 100 µM | TGI [41]: > 100 µM | TGI [42]: > 30.1 µM | TGI [43]: > 100 µM | TGI [44]: > 100 µM | TGI [45]: 2.81 µM | TGI [46]: > 100 µM | TGI [47]: > 100 µM | TGI [48]: > 100 µM | TGI [49]: > 85.2 µM | TGI [50]: > 58.8 µM | TGI [51]: > 63.7 µM | TGI [52]: 0.365 µM | TGI [53]: > 72.2 µM | TGI [54]: > 100 µM | TGI [55]: 10.5 µM | TGI [56]: > 100 µM | TGI [57]: 15.2 µM

O=C1Nc2c(Cl)cc(Cl)cc2C1=O
TGI [1]: 48.6 µM | TGI [2]: 29.7 µM | TGI [3]: 35.4 µM | TGI [4]: 55.2 µM | TGI [5]: 35.9 µM | TGI [6]: 41.5 µM | TGI [7]: 52.5 µM | TGI [58]: 30.2 µM | TGI [8]: > 100 µM | TGI [9]: 29.6 µM | TGI [10]: 72.9 µM | TGI [11]: 37.6 µM | TGI [12]: 35.1 µM | TGI [13]: > 100 µM | TGI [14]: 28.2 µM | TGI [15]: 7.88 µM | TGI [17]: 39.4 µM | TGI [18]: 40.5 µM | TGI [19]: > 100 µM | TGI [20]: 47.6 µM | TGI [21]: 44.9 µM | TGI [22]: 55.8 µM | TGI [23]: 32.2 µM | TGI [24]: 15.2 µM | TGI [25]: 54.5 µM | TGI [26]: > 100 µM | TGI [27]: 53.4 µM | TGI [59]: 35.1 µM | TGI [30]: 47.5 µM | TGI [31]: 57.5 µM | TGI [32]: 35.4 µM | TGI [33]: 38.6 µM | TGI [34]: 21.8 µM | TGI [35]: 40.4 µM | TGI [36]: 45.9 µM | TGI [37]: 40.7 µM | TGI [38]: 28.6 µM | TGI [39]: 83.4 µM | TGI [40]: 28.8 µM | TGI [41]: 50.3 µM | TGI [42]: 39.5 µM | TGI [43]: > 100 µM | TGI [44]: > 100 µM | TGI [45]: 34.4 µM | TGI [46]: 39.6 µM | TGI [47]: 33.1 µM | TGI [48]: 48.7 µM | TGI [49]: > 100 µM | TGI [51]: > 100 µM | TGI [52]: 26.7 µM | TGI [53]: 31.8 µM | TGI [54]: 46.6 µM | TGI [56]: 35.5 µM | TGI [57]: 50.8 µM
